Reference: patent US20060095982A1 (priority 2002, published 2006)
Marks after values point to notes of the source that are not given here.

How the values were obtained:
[1] = tested on: mer-AB transgenic tobacco shoots and roots; assay: Speciation of Hg by X-ray absorption spectroscopy, transgenic plants; settings: 100 μM for 15 d
Salvia natans = settings: 5 μg/ml HgCl2; cited from earlier work
WT tobacco plants [2] = assay: Speciation of Hg by X-ray absorption spectroscopy, WT
[3] = tested on: chloroplast engineered pLDR-merAB and pLDR-merAB 3′UTR tobacco plants; assay: Plant growth and tolerance on Hg-amended soil (dry weight, root length), transgenic lines
[4] = tested on: Untransformed E. coli cells (XL1-blue); assay: Mercury resistance bioassay in bacteria, untransformed control; settings: 25 μM HgCl2
[5] = tested on: transgenic tobacco lines 5A (pLDR-MerAB) and 9 (pLDR-MerAB-3′UTR); assay: Hg accumulation in shoots and roots (CVAAS), transgenic lines
[6] = tested on: WT tobacco plant (Petit Havana); assay: Hg accumulation in shoots and roots (CVAAS), WT
Bacopa monnieri = settings: 5 μg/ml HgCl2; cited from earlier work
[7] = tested on: E. coli cells containing pLDR-MerAB and pLDR-MerAB-3′UTR; assay: Mercury resistance bioassay in bacteria, transformed clones; settings: 24 hours at 37° C.
WT tobacco plants [8] = assay: Plant growth and tolerance on Hg-amended soil (dry weight, root length), WT
wild type tobacco plants = settings: increase in PMA from 0 to 400 μM in soil, 14 d
[9] = tested on: leaf disks of wild type tobacco; settings: 10 μM PMA
[10] = tested on: wild type tobacco plants (Petit Havana); settings: 14 days
[11] = tested on: transgenic tobacco lines 5A (pLDR-MerAB) and 9 (pLDR-MerAB-3′UTR)
[12] = tested on: leaf disks of transgenic tobacco lines; settings: 10 μM PMA
[13] = tested on: merAB seedlings (pLDR-MerAB and pLDR-MerAB-3′UTR clones); settings: 14 days
Chlorella = assay: Preliminary heavy metal tolerance of wild-type Chlorella; settings: preliminary studies

[Cl][Hg][Cl] [HgCl2, mercuric chloride]
share of accumulated mercury in inorganic Hg-like form (XAS curve fitting) [1]: 77% | share of accumulated mercury in organic Hg-like form (XAS curve fitting) [1]: 33% | reduction of chlorophyll content (Salvia natans): 26% | form of mercury accumulated by WT plants (XAS edge-fitting) (WT tobacco plants [2]): entirely in the form of the mercury supplied | difference between dry weights of WT and transgenic lines ([3]; concentration from 0 to 300 μM in soil): no significant differences | effect on root lengths of transgenic lines ([3]; concentration in soil from 0 to 300 μM, compared to WT): increased the roots lengths | toxicity to merAB-tobacco plants relative to PMA ([3]; supplied at the same concentration): less toxic | growth of untransformed cells [4]: unable to grow | mercury accumulated in shoots of transgenic plants relative to WT ([5]; 100 μM): 3 times | mercury accumulated in shoots of transgenic plants relative to WT ([5]; 200 μM): 9 times | Hg accumulation, Root, 5A ([5]; soil amended with 100 μM): 115.1 | Hg accumulation, Root, 9 ([5]; soil amended with 100 μM): 114.8 | Hg accumulation, Shoot, 5A ([5]; soil amended with 100 μM): 7.42 | Hg accumulation, Shoot, 9 ([5]; soil amended with 100 μM): 6.27 | Hg accumulation, Root, 5A ([5]; soil amended with 200 μM): 215.5 | Hg accumulation, Root, 9 ([5]; soil amended with 200 μM): 149.5 | Hg accumulation, Shoot, 5A ([5]; soil amended with 200 μM): 6.4** | Hg accumulation, Shoot, 9 ([5]; soil amended with 200 μM): 4.5* | Hg accumulation, Root, 5A ([5]; soil amended with 300 μM): 333.8* | Hg accumulation, Root, 9 ([5]; soil amended with 300 μM): 377.4 | Hg accumulation, Shoot, 5A ([5]; soil amended with 300 μM): 0.6* | Hg accumulation, Shoot, 9 ([5]; soil amended with 300 μM): 0.7* | Hg accumulation, Root, WT ([6]; soil amended with 100 μM): 97.04 | Hg accumulation, Shoot, WT ([6]; soil amended with 100 μM): 4.74 | Hg accumulation, Root, WT ([6]; soil amended with 200 μM): 143.8 | Hg accumulation, Shoot, WT ([6]; soil amended with 200 μM): 0.57 | Hg accumulation, Root, WT ([6]; soil amended with 300 μM): 120.1 | Hg accumulation, Shoot, WT ([6]; soil amended with 300 μM): 0.23 | reduction of chlorophyll content (Bacopa monnieri): 35% | growth in liquid broth ([7]; 25 and 50 μM HgCl2, LB broth): able to grow | concentrations of HgCl2 in which cells were able to grow ([7]; solid agar plates, LB): up to 100 μM | effect on root lengths of WT (WT tobacco plants [8]; concentration in soil from 0 to 300 μM): not significantly affected

CC(=O)[O-].[Hg+][c]1ccccc1 [PMA, phenylmercuric acetate]
total dry weight of wild type plants (wild type tobacco plants): decreased progressively | chlorophyll content of leaf disks [9]: reduced | survival of wild type plants ([10]; 50 μM PMA in soil): barely survived | effect on wild type plants ([10]; 100 and 200 μM PMA in soil): lethal | concentration tolerated when grown in soil ([11]; chloroplast transformed lines): up to 400 μM | total dry weight of transgenic plants ([11]; increase in PMA until PMA reached 400 μM, soil, 14 d): no decrease in total dry weight | form of mercury accumulated by WT plants (XAS edge-fitting) (WT tobacco plants [2]): entirely in the form of the mercury supplied | average reduction of root length ([3]; both transgenic lines, concentration increased from 0 μM to 300 μM): 4 cm | dry weights of transgenic lines relative to WT ([3]; under PMA treatment): 2 fold | chlorophyll content of leaf disks [12]: markedly increased | survival of merAB seedlings ([13]; 200 μM PMA in soil): survived | PMA concentration at which seedlings grew well ([13]; soil, both transgenic clones): up to 100 μM | average reduction of root length (WT tobacco plants [8]; WT, concentration increased from 0 μM to 300 μM): 6 cm | dry weights of WT shoots and roots (WT tobacco plants [8]; concentration increased from 0 to 300 μM in soil, 15 days): decreased progressively

O=S(=O)([O-])[O-].[Cd+2] [cadmium sulfate]
level tolerated by Chlorella (Chlorella): at least 200 μM
